Data as given in publication PMC9350523 (Dose-Response, 2022).
Blank lines part the entries; values can stand above or below the compound they belong to. Ends that are not written are not given here.

Assays:
BRAF = conditions: cited from earlier work
[1] = tested on: glutamine synthetase 2 (GS2); conditions: cited from earlier work
human PCNA = human PCNA (Homo sapiens, UniProt P12004); assay: Fluorescence anisotropy competition: displacement of 50 nM PL peptide from PCNA; assay type: binding; conditions: for f (hormesis parameter): f not different from 0 (95% confidence interval), no significant hormesis
human PCNA, sequence (P12004 whole entry): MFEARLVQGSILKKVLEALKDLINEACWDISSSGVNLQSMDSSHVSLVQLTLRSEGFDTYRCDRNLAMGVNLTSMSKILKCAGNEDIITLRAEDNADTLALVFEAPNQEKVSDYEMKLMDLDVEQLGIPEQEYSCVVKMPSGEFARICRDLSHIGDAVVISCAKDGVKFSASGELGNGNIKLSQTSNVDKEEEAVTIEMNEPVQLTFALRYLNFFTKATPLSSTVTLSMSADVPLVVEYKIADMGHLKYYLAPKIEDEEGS

[2] = GS2 from chloroplasts of Lotus corniculatus
[3] = UNG2(a.a.1-19) competitor, .25 μM PCNA, hormetic curve

Compound: CC(C)(C)c1nc(-c2cccc(NS(=O)(=O)c3c(F)cccc3F)c2F)c(-c2ccnc(N)n2)s1 [dabrafenib]
mode of inhibition (BRAF): competitive with ATP

Compound: CS(=N)(=O)CC[C@H](N)C(=O)O (stereo partly shown) [methionine sulfoximine]
mode of inhibition ([1]; GS2): competitive with glutamate and a somewhat irreversible inhibitor | GS2 activity at high methionine sulfoximine doses [1, 2]: completely inhibit the enzyme | GS2 activity at low methionine sulfoximine concentrations [1, 2]: allosteric stimulatory effect on other subunits of the octamer

b (slope parameter) (human PCNA; UNG2(a.a.1-19) competitor, 1 μM PCNA, 50 nM PL peptide, hormetic curve): 1.497 | b (slope parameter) (human PCNA; UNG2(a.a.1-19) competitor, 1 μM PCNA, 50 nM PL peptide, standard curve): 1.143 | f (hormesis parameter) (human PCNA; UNG2(a.a.1-19) competitor, 1 μM PCNA, hormetic curve): .0044^ c | b (slope parameter) (human PCNA; UNG2(a.a.1-19) competitor, .25 μM PCNA, 50 nM PL peptide, hormetic curve): 2.798 | b (slope parameter) (human PCNA; UNG2(a.a.1-19) competitor, .25 μM PCNA, 50 nM PL peptide, standard curve): 3.423 | c (lower asymptote) (human PCNA; [3]): .0572 | f (hormesis parameter) (human PCNA; [3]): .0013^ c
Compound: MIGQKTLYSFFSPSPARKR [UNG2(a.a.1-19)]
displacement / hormetic response (human PCNA; UNG2(a.a.1-19), .25 and 1 μM PCNA, 50 nM PL peptide): displaced PL peptide from PCNA without a hormetic response | control: PL peptide anisotropy in the absence of PCNA (human PCNA; competitor included in the cuvette without PCNA): the fluorescence anisotropy of PL peptide was unchanged
